20 compounds from US8604024B2, “Compounds for the reduction of beta-amyloid production” (Bristol-Myers Squibb Company, priority 2011, dated 2013) can be followed below.

As usually defined, the IC50 is the concentration that gives 50% inhibition.

For the first assay, the system named is Aβ1-42 production in H4 cells stably transfected with APP751 containing the Swedish mutation. Briefly: Cellular assay for inhibition of Aβ1-42 production (H4 APP751 SWE clone 8.20). It counts as cell-based. As to conditions: 19 h, H4 APP751 SWE clone 8.20 cells, 19 h incubation; read-out: Aβ42 cellular IC50. As to the method: Cellular Assays for Inhibition of Aβ1-40 and Aβ1-42 Production
H4 cells stably transfected with APP751 containing the Swedish mutation (H4 APP751 SWE clone 8.20, developed at BMS) were maintained in log phase through twice weekly passage at a 1:20 split. […] Following incubation for 19 h in 5% CO2 at 37° C., plates were briefly centrifuged (1000 rpm, 5 min). A 10 μl aliquot from each well was transferred to a second assay plate (Costar 3709) for Aβ40 measurements. Antibody cocktails were freshly prepared by dilution into 40 mM Tris-HCl (pH 7.4) with 0.2% BSA and added to assay plates. For Aβ42 measurements, antibodies specific for the Aβ42 neoepitope (565, developed at BMS; conjugated to the Wallac reagent (Perkin Elmer)) and the N-terminal sequence of Aβ peptide (26D6, developed at SIBIA; conjugated to APC (Perkin Elmer)) were mixed and 20 μl of the mixture was added to each well of the incubated cell plate yielding a final concentration of 0.8 ng/well 565 and 75 ng/well 26D6. For the Aβ40 measurements, antibodies specific for the Aβ40 neoepitope (TSD, developed at BMS; conjugated to the Wallac reagent (Perkin Elmer)) and 26D6 as described above were mixed and 20 μl of the mixture was added to the 10 μl aliquots which had been removed previously from the cell plate yielding a final concentration of 1.6 ng/well TSD and 17.5 ng/well 26D6. Assay plates containing antibodies were sealed with aluminum foil and incubated overnight at 4° C. Signal was determined using a Viewlux counter (Perkin Elmer) and IC50 values determined using curve fitting in CurveMaster (Excel Fit based).
With `C[C@]12N=C(N)SC[C@H]1CCc1ccc(NC(=O)c3ccc(Cl)cn3)cc12` [Example 7b, N-((4aS,10bS)-2-Amino-10b-methyl-4a,5,6,10b-tetrahydro-4H-naphtho[1,2-d][1,3]thiazin-9-yl)-5-chloropicolinamide], the IC50 is 1200 nM.

As for `CC#Cc1cncc(-c2ccc3c(c2)[C@]2(C)N=C(N)SC[C@@H]2CCO3)c1` [Example 22a, (4aR,11bR)-11b-Methyl-10-(5-(prop-1-yn-1-yl)pyridin-3-yl)-4a,5,6,11b-tetrahydro-4H-benzo[2,3]oxepino[4,5-d][1,3]thiazin-2-amine], the IC50 amounted to 8200 nM.

For `CC#Cc1cncc(-c2ccc3c(c2)[C@@]2(C)N=C(N)SC[C@H]2CCO3)c1` [Example 22b, (4aS,11bS)-11b-Methyl-10-(5-(prop-1-yn-1-yl)pyridin-3-yl)-4a,5,6,11b-tetrahydro-4H-benzo[2,3]oxepino[4,5-d][1,3]thiazin-2-amine], the half-inhibitory concentration (IC50) stood at 1400 nM.

Consider `Cc1ncc(-c2ccc3c(c2)[C@]2(C)N=C(N)SC[C@@H]2CCO3)s1` [Example 26a, (4aR,11bR)-11b-Methyl-10-(2-methylthiazol-5-yl)-4a,5,6,11b-tetrahydro-4H-benzo[2,3]oxepino[4,5-d][1,3]thiazin-2-amine], for which the IC50 stood at 4500 nM.

With `Cc1ncc(-c2ccc3c(c2)[C@@]2(C)N=C(N)SC[C@H]2CCO3)s1` [Example 26b, (4aS,11bS)-11b-Methyl-10-(2-methylthiazol-5-yl)-4a,5,6,11b-tetrahydro-4H-benzo[2,3]oxepino[4,5-d][1,3]thiazin-2-amine], the IC50 was found to be 3200 nM.

Consider `C[C@]12N=C(N)SC[C@H]1CCOc1ccc(NC(=O)c3ccc(Cl)cn3)cc12` [Example 33a, N-((4aS,11bS)-2-amino-11b-methyl-4a,5,6,11b-tetrahydro-4H-benzo[2,3]oxepino[4,5-d][1,3]thiazin-10-yl)-5-chloropicolinamide], for which the IC50 stood at 35 nM.

As to `C[C@@]12N=C(N)SC[C@@H]1CCOc1ccc(NC(=O)c3ccc(Cl)cn3)cc12` [Example 33b, N-((4aR,11bR)-2-amino-11b-methyl-4a,5,6,11b-tetrahydro-4H-benzo[2,3]oxepino[4,5-d][1,3]thiazin-10-yl)-5-chloropicolinamide], the IC50 is 7800 nM.

As for `C[C@]12N=C(N)SC[C@H]1CCOc1ccc(NC(=O)c3ncc(Cl)cc3Cl)cc12` [Example 34a, N-((4aS,11bS)-2-Amino-11b-methyl-4a,5,6,11b-tetrahydro-4H-benzo[2,3]oxepino[4,5-d][1,3]thiazin-10-yl)-3,5-dichloropicolinamide], the IC50 was 6.9 nM.

Turning to `C[C@@]12N=C(N)SC[C@@H]1CCOc1ccc(NC(=O)c3ncc(Cl)cc3Cl)cc12` [Example 34b, N-((4aR,11bR)-2-Amino-11b-methyl-4a,5,6,11b-tetrahydro-4H-benzo[2,3]oxepino[4,5-d][1,3]thiazin-10-yl)-3,5-dichloropicolinamide], the IC50 worked out at 790 nM.

`C[C@]12N=C(N)SC[C@H]1CCOc1ccc(NC(=O)c3ccc(F)cn3)cc12` [Example 36a, N-((4aS,11bS)-2-Amino-11b-methyl-4a,5,6,11b-tetrahydro-4H-benzo[2,3]oxepino[4,5-d][1,3]thiazin-10-yl)-5-fluoropicolinamide]: the concentration for half-maximal inhibition (IC50) is 17 nM.

Turning to `C[C@@]12N=C(N)SC[C@@H]1CCOc1ccc(NC(=O)c3ccc(F)cn3)cc12` [Example 36b, N-((4aR,11bR)-2-Amino-11b-methyl-4a,5,6,11b-tetrahydro-4H-benzo[2,3]oxepino[4,5-d][1,3]thiazin-10-yl)-5-fluoropicolinamide], the IC50 was 10000 nM.

Regarding `C[C@@]12N=C(N)SC[C@@H]1CCCc1ccc(NC(=O)c3ccc(F)cn3)cc12` [Example 43a, N-((4aR,11bR)-2-Amino-11b-methyl-4,4a,5,6,7,11b-hexahydrobenzo[6,7]cyclohepta[1,2-d][1,3]thiazin-10-yl)-5-fluoropicolinamide], the 50% inhibitory concentration (IC50) was found to be 2500 nM.

On to `C[C@]12N=C(N)SC[C@H]1CCCc1ccc(NC(=O)c3ccc(F)cn3)cc12` [Example 43b, N-((4aS,11bS)-2-Amino-11b-methyl-4,4a,5,6,7,11b-hexahydrobenzo[6,7]cyclohepta[1,2-d][1,3]thiazin-10-yl)-5-fluoropicolinamide], for which the IC50 was 120 nM.

Turning to `C[C@@]12N=C(N)SC[C@@H]1CCCc1ccc(NC(=O)c3ccc(C#N)cn3)cc12` [Example 44a, N-((4aR,11bR)-2-Amino-11b-methyl-4,4a,5,6,7,11b-hexahydrobenzo[6,7]cyclohepta[1,2-d][1,3]thiazin-10-yl)-5-cyanopicolinamide], the IC50 was found to be 6800 nM.

Take `C[C@]12N=C(N)SC[C@H]1CCCc1ccc(NC(=O)c3ccc(C#N)cn3)cc12` [Example 44b, N-((4aS,11bS)-2-Amino-11b-methyl-4,4a,5,6,7,11b-hexahydrobenzo[6,7]cyclohepta[1,2-d][1,3]thiazin-10-yl)-5-cyanopicolinamide]: the IC50 stood at 21 nM.

Consider `C[C@]12N=C(N)SC[C@H]1CCCc1ccc(NC(=O)c3ncc(Cl)cc3Cl)cc12` [Example 45a, N-((4aS,11bS)-2-Amino-11b-methyl-4,4a,5,6,7,11b-hexahydrobenzo[6,7]cyclohepta[1,2-d][1,3]thiazin-10-yl)-3,5-dichloropicolinamide], for which the IC50 turned out to be 7.2 nM.

Turning to `C[C@@]12N=C(N)SC[C@@H]1CCCc1ccc(NC(=O)c3ncc(Cl)cc3Cl)cc12` [Example 45b, N-((4aR,11bR)-2-Amino-11b-methyl-4,4a,5,6,7,11b-hexahydrobenzo[6,7]cyclohepta[1,2-d][1,3]thiazin-10-yl)-3,5-dichloropicolinamide], the IC50 was found to be 920 nM.

As to `C[C@]12N=C(N)SC[C@H]1CCCc1ccc(NC(=O)c3ccc(OC(F)F)cn3)cc12` [Example 46a, N-((4aS,11bS)-2-Amino-11b-methyl-4,4a,5,6,7,11b-hexahydrobenzo[6,7]cyclohepta[1,2-d][1,3]thiazin-10-yl)-5-(difluoromethoxy)picolinamide], the IC50 was 27 nM.

Take `C[C@@]12N=C(N)SC[C@@H]1CCCc1ccc(NC(=O)c3ccc(OC(F)F)cn3)cc12` [Example 46b, N-((4aR,11bR)-2-Amino-11b-methyl-4,4a,5,6,7,11b-hexahydrobenzo[6,7]cyclohepta[1,2-d][1,3]thiazin-10-yl)-5-(difluoromethoxy)picolinamide]: the IC50 was 3500 nM.

The same assay, now with this note: H4 APP751 SWE clone 8.20 cells, 19 h incubation; read-out: Aβ42 cellular IC50.
Take `C[C@]12N=C(N)SC[C@H]1CCOc1ccc(NC(=O)c3ccc(C#N)cn3)cc12` [Example 35b, N-((4aS,11bS)-2-amino-11b-methyl-4a,5,6,11b-tetrahydro-4H-benzo[2,3]oxepino[4,5-d][1,3]thiazin-10-yl)-5-cyanopicolinamide]: the IC50 was determined as 6.2 nM.
